Reference: patent US8008433B2, “Methods for preventing or treating bone disorders” (Metabolic Pharmaceutical Limited, priority 2004, dated 2011)
Where a SMILES comes first, the peptide text is derived from it. Bridges are numbered along the chain shown (N, C = ends).

Tests used:
[1] = system: aged rat model for post-menopausal osteoporosis; test: Vertebral compression of L5 (trabecular bone); assay type: in vivo, Sprague-Dawley rats (Rattus Norvegicus); conditions: slow release pellet 0.01 mg/day, 12 weeks
Description: Ninety-six aged Sprague-Dawley rats were randomly assigned to one of eight groups. The first two groups were sham operated. Group 1 was kept as a Sham control and Group 2 was treated with 2.5 mg/kg/day of recombinant human GH (rhGH) (BresaGen). The remaining six groups arrived from Harlan, ovariectomized (OVX). This surgery was performed approximately 8 days before the commencement of treatment. Group 3 was left as a control for the OVX model. Group 4 was given a treatment of 2.5 mg/kg/day of rhGH. Group 5 was treated with a low dose of AOD peptide (LAOD) 0.75 mg/kg/day and Group 6 was treated with a high dose of AOD peptide (HAOD) 2.0 mg/kg/day. […]
Statistical analysis was performed using statistical software, SPSS (version 11.0). Comparisons involving two groups were analyzed by independent student's t-test. Multiple comparisons were analyzed by one-way ANOVA analysis using the pairwise comparison Protected Fisher's Least Significant Difference (LSD) post hoc test. […]
Digital images were taken and image analysis software (ImageJ 1.28u, NIH) was used to determine the height and cross-sectional area of the vertebral body. […] While preloading the samples, the distance between the platens was measured using digital calipers. The gauge length was then determined by subtracting the height of the jig with the distance between the platens. […]

C57B1/6J (Ob/Ob) mouse = conditions: from AU 693478; cited from earlier work

17B-estradiol [Estrogen]
strength and stiffness (vertebral compression L5), decrease caused by OVX [1]: did not prevent a decrease | stress and elastic modulus values (vertebral compression L5) compared to OVX [1]: higher

CC[C@H](C)[C@H](NC(=O)[C@H](CCCNC(=N)N)NC(=O)[C@H](CC(C)C)NC(=O)[C@@H](N)Cc1ccc(O)cc1)C(=O)N[C@H](C(=O)N[C@@H](CCC(N)=O)C(=O)N[C@H]1CSSC[C@@H](C(=O)NCC(=O)N[C@@H](Cc2ccccc2)C(=O)O)NC(=O)[C@H](CO)NC(=O)CNC(=O)[C@H](CCC(=O)O)NC(=O)[C@H](C(C)C)NC(=O)[C@H](CO)NC(=O)[C@H](CCCNC(=N)N)NC1=O)C(C)C [AOD, Tyr Leu Arg Ile Val Gln Cys Arg Ser Val Glu Gly Ser Cys Gly Phe] (H-YLRIVQCRSVEGSCGF-OH; disulfide 7-14; N-terminus and C-terminus assumed)
solubility: > 1000 µg/mL

hGH 177-191: synthetic peptide corresponding to amino acid residues 177-191 of the human growth hormone sequence (LRIVQCRSVEGSCGF; UniProt P01241 203-217, looked up, fragment)
adipose tissue mass (C57B1/6J (Ob/Ob) mouse): reduce | body weight gain (C57B1/6J (Ob/Ob) mouse): reduce
